Patent US10894038B2, “Indolizine derivatives, composition and methods of use” (Shanghai Fochon Pharmaceutical Co., Ltd., priority 2015, dated 2021)

Tests used:
[1] = target: T1, URAT1 (Homo sapiens (Human), UniProt Q96S37); test: URAT1 in vitro inhibition activity, Method A (14C-uric acid uptake in HEK293-URAT-4 cells); type: cell-based; details: 50 μM 14C-uric acid, 10 min uptake
Method: The potency of the compounds of formula (I) as inhibitors of the URAT1 was determined as follow.
Cell Lines were generated in WuXi AppTec (HEK293-URAT-4: Stable cell line of HEK293 which was transfected with pcDNA3.1-URAT (Human SLC22A12 cDNA Clone, Abgent-DC07943). HEK293-PCDNA-5: Negative control cell of HEK293 which was transfected with pcDNA3.1 empty vector.
Cells were seeded onto 24-well plates at the density of 2.0×10^5 cells per well. The cells were incubated at 37° C., 5% CO2 overnight. After approximately 24 hours culture, cells were used for uptake experiments. The culture medium were removed from the wells and the cells were incubated in 0.4 ml/well of Hank's balanced salt solution (HBSS) for 10 min. HBSS was replaced with 0.18 ml/well fresh HBSS. Compounds were 5 folds serial diluted in DMSO, and then 25 folds diluted in HBSS. Compounds diluted with HBSS (10 μl) were added to relevant well of cell plates, and plates were incubated at 37° C., 5% CO2 for 15 min. The final concentration of DMSO in the assay was 0.2%. 10 μl HBSS containing radioactively labeled Urate (^14C-uric acid) was added to each well. The final concentration of ^14C-uric acid in the assay medium was 50 μM. After 10 min, the assay medium was immediately removed. The cells were washed quickly with 0.5 ml pre-chilled HBSS twice. 0.1 M NaOH (0.4 ml) was added to lyse the cells for at least 20 min. The cell lysate was collected to a scintillation vial, and scintillant (4 ml) was added and the radioactivity was counted by a liquid scintillation counter. Inhibiton % data were calculated using the formula
[formula] CPD: Signal from a well containing a test compound HC (high control): Average of signals from HEK293-URAT-4 cells LC (low control): Average of signals from HEK293-PCDNA-5.
Target sequence in this assay (Q96S37 whole entry): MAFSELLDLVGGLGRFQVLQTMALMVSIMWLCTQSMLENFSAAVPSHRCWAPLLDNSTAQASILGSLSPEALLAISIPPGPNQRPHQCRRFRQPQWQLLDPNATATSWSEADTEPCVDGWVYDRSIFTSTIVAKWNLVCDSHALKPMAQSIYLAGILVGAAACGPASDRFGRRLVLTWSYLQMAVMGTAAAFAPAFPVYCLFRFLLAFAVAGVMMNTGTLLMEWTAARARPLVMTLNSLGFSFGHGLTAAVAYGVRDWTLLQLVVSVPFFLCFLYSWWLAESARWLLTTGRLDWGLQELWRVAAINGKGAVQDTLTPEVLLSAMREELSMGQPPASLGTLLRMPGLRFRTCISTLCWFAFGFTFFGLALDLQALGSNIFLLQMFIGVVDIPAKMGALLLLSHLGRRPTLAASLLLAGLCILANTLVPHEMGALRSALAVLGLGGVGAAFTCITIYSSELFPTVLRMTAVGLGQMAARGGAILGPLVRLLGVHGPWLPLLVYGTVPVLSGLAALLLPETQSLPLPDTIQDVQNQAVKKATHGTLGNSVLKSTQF

[2] = target: T1, URAT1; test: URAT1 in vitro inhibition activity, Method B (14C-uric acid uptake in HEK293-URAT1 cells); type: cell-based; details: 5.0 μmol/L 14C-uric acid, 2 min uptake
Method: HEK293-URAT1 cell Lines were donated by Japan Fuji Biomedical Research Institute. Negative control cell of HEK293 (MOCK cells) which was transfected with pcDNA3.1 empty vector. HEK293-URAT1 cell lines and MOCK cell lines were cultured in complete growth medium consisting of DMEM supplemented with 10% FBS, penicillin and streptomycin.
Preparation of working solution: Each stock solutions was diluted to different concentrations (6, 20, 60, 200 and 600 μmol/L) with DMSO as 200× working solution, which was then diluted to 2×compound working solution with HBSS (Cl^− free) buffer. Radiolabeled substrate ^14C-Uric acid solution was diluted with HBSS (Cl^− free) buffer to obtain 2× working solution which was mixed with an equal volume of 2× compound working solution to obtain the mixture of radiolabeled substrate and compound working solution.
HER293-URAT1 and MOCK cells were seeded onto 24-well plates at the density of 1.5×10^6 cells per well. The cells were incubated at 37° C., 5% CO2 overnight. After cultured for approximately 2 to 3 days, cells were used for the experiments. The culture medium were removed from the wells, and cells were washed with HBSS (Cl^− free) and incubated in 37° C. HBSS (Cl^− free) for 10 min. HBSS was replaced with 500 μL of the mixture of radiolabeled substrate and compound working solution. The final concentration of ^14C-Uric acid in the assay was 5.0 μmol/L. Plates were incubated at 37° C., 5% CO2 for 2 min, and the reaction was stopped by the addition of pre-chilled HBSS (Cl^− free) by washing three times. 400 μL NaOH ([…]) was added to lyse the cells and the cell lysate was collected to scintillation vials, and 3 ml scintillant (Aquasol-2, PerkinElmer) was added and after mixing completely, the radioactivity was counted by Tri-Carb 2910TR liquid scintillation counter. Each concentration of compounds, positive control and negative control were repeated in two wells (n=2). Inhibition % data were calculated using the formula: Inhibition=[100×(U−U0)/(Uc−U0)]%, and analyzed using Prism5 software.
U0: Average of signals of MOCK cells;
Uc: Average of signals of radiolabeled substrate. The half inhibition concentration of the tested compounds to URAT1 were analyzed using Prism 5 software.
Target sequence in this assay (Q96S37 whole entry, species assumed): as the sequence (Q96S37 whole entry) above

[3] = system: potassium oxonate-induced hyperuricemia in rats; test: Effect on potassium oxonate-induced hyperuricemia in rats (serum uric acid); type: in vivo, rat; details: male SD rats, 5 mg/kg oral; for serum uric acid levels, time after dosing 0.5 h: 0.5 h after dosing; for serum uric acid levels, time after dosing 1 h: 1 h after dosing; for serum uric acid levels, time after dosing 2 h: 2 h after dosing; for serum uric acid levels, time after dosing 3 h: 3 h after dosing; for serum uric acid levels, time after dosing 4 h: 4 h after dosing
Method: Healthy male SD rats, weighing 250±20 g, were used. In the experiment, except for 10 rats as normal control group were orally administered with distilled water, the others were orally administered with yeast extract (20 g/kg, qd×5 days). One hour after last administration, all the rats were intraperitoneal injection with 250 mg/kg potassium oxonate while normal control group was treated with an equal volume of 0.5% CMC-Na (injection volume of 2 ml/kg). After one hour, rats were anesthetized with isoflurane and the serum uric acid was determined by uric acid test strip. All the rats were divided into groups by uric acid. The model control group and experimental groups was given orally administration 0.5% CMC-Na or compounds with a dose of 10 ml/kg-bw. Phosphotungstic acid precipitation method was used to detect serum uric acids in inner canthus blood at 0.5, 1, 2, 3, 4 h after administration, respectively. Substantially, observing the effects of compounds on serum uric acids levels and calculating each of groups' AUC and the inhibition of uric acid increased area by the equation as follows: […]
As shown in the equation, AUC0 indicated the AUC of model control group, AUC1 indicated the AUC of therapy group, AUC2 indicated the AUC of normal control group.

SMILES | IC50 [1] [nM] | IC50 [2] [nM] | serum uric acid levels, time after dosing 0.5 h [3] [µmol/L] | serum uric acid levels, time after dosing 1 h [3] [µmol/L] | serum uric acid levels, time after dosing 2 h [3] [µmol/L] | serum uric acid levels, time after dosing 3 h [3] [µmol/L] | serum uric acid levels, time after dosing 4 h [3] [µmol/L]
CC(C)(Sc1ccncc1-c1ccc(C#N)c2cccn12)C(=O)O [Example 2, 2-((3-(8-cyanoindolizin-5-yl)pyridin-4-yl)thio)-2-methylpropanoic acid] | 66 | – | – | – | – | – | –
CC(C)(Sc1ccncc1-c1ccc(C#N)c2ccc(Cl)n12)C(=O)O [Example 3, 2-((3-(3-chloro-8-cyanoindolizin-5-yl)pyridin-4-yl)thio)-2-methylpropanoic acid] | 282 | – | – | – | – | – | –
CC(C)(Sc1ccncc1-c1ccc(C#N)c2c(Cl)ccn12)C(=O)O [Example 4, 2-((3-(1-chloro-8-cyanoindolizin-5-yl)pyridin-4-yl)thio)-2-methylpropanoic acid] | 68 | – | – | – | – | – | –
N#Cc1ccc(-c2cnccc2SC2(C(=O)O)CCC2)c2cccn12 [Example 8, 1-((3-(5-cyanoindolizin-8-yl)pyridin-4-yl)thio)cyclobutane-1-carboxylic acid] | – | 55 | 449.8 ± 39.8 | 483.9 ± 62.9 | 451.2 ± 58.9 | 393.9 ± 68.6 | 358.3 ± 68.2
CC(C)(Sc1ccncc1-c1ccc(C#N)n2cccc12)C(=O)O [Example 9, 2-((3-(5-cyanoindolizin-8-yl)pyridin-4-yl)thio)-2-methylpropanoic acid] | – | – | 432.1 ± 43.2 | 450.8 ± 40.9 | 385.5 ± 52.2 | 347.1 ± 46.8 | 336.3 ± 59.1
N#Cc1ccc(-c2cnccc2SC2(C(=O)O)CCC2)c2ccc(Cl)n12 [Example 10, 1-((3-(3-chloro-5-cyanoindolizin-8-yl)pyridin-4-yl)thio)cyclobutane-1-carboxylic acid] | – | 424 | – | – | – | – | –
N#Cc1ccc(-c2cnccc2SC2(C(=O)O)CCC2)c2cc(Cl)cn12 [Example 11, 1-((3-(2-chloro-5-cyanoindolizin-8-yl)pyridin-4-yl)thio)cyclobutane-1-carboxylic acid] | – | 828 | – | – | – | – | –
N#Cc1ccc(-c2cnccc2SC2(C(=O)O)CCC2)c2cc(F)cn12 [Example 12, 1-((3-(5-cyano-2-fluoroindolizin-8-yl)pyridin-4-yl)thio)cyclobutane-1-carboxylic acid] | – | 271 | – | – | – | – | –
N#Cc1ccc(-c2cnccc2SC2(C(=O)O)CCC2)n2cc(Cl)cc12 [Example 13, 1-((3-(2-Chloro-8-cyanoindolizin-5-yl)pyridin-4-yl)thio)cyclobutane-1-carboxylic acid] | – | 26 | 487.2 ± 46.9 | 523.6 ± 50.4 | 422.0 ± 54.1 | 341.4 ± 69.4 | 295.5 ± 47.2
CC(C)(Sc1ccncc1-c1ccc(C#N)c2cc(Cl)cn12)C(=O)O [Example 14, 2-((3-(2-chloro-8-cyanoindolizin-5-yl)pyridin-4-yl)thio)-2-methylpropanoic acid] | – | 30 | 476.3 ± 53.4 | 489.5 ± 83.1 | 385.8 ± 68.2 | 337.2 ± 72.4 | 285.4 ± 47.7
N#Cc1ccc(-c2cnccc2SC2(C(=O)O)CCC2)n2cc(Br)cc12 [Example 15, 1-((3-(2-bromo-8-cyanoindolizin-5-yl)pyridin-4-yl)thio)cyclobutane-1-carboxylic acid] | – | 29 | 476.8 ± 61.7 | 496.3 ± 74.8 | 401.7 ± 52.9 | 331.3 ± 70.5 | 278.0 ± 46.0
CC(C)(Sc1ccncc1-c1ccc(C#N)c2cc(Br)cn12)C(=O)O [Example 16, 2-((3-(2-bromo-8-cyanoindolizin-5-yl)pyridin-4-yl)thio)-2-methylpropanoic acid] | – | – | 460.6 ± 46.5 | 491.9 ± 77.4 | 380.6 ± 47.4 | 293.9 ± 42.1 | 264.7 ± 38.8
N#Cc1cc2c(C#N)ccc(-c3cnccc3SC3(C(=O)O)CCC3)n2c1 [Example 17, 1-((3-(2,8-dicyanoindolizin-5-yl)pyridin-4-yl)thio)cyclobutane-1-carboxylic acid] | – | 45 | 454.4 ± 39.8 | 458.1 ± 66.7 | 432.2 ± 67.6 | 403.0 ± 70.0 | 340.1 ± 56.0
CS(=O)(=O)c1cc2c(C#N)ccc(-c3cnccc3SC3(C(=O)O)CCC3)n2c1 [Example 19, 1-((3-(8-cyano-2-(methylsulfonyl)indolizin-5-yl)pyridin-4-yl)thio)cyclobutane-1-carboxylic acid] | – | 332 | – | – | – | – | –
N#Cc1ccc(-c2cnccc2SC2(C(=O)O)CCC2)n2c(F)ccc12 [Example 20, 1-((3-(8-Cyano-3-fluoroindolizin-5-yl)pyridin-4-yl)thio)cyclobutane-1-carboxylic acid] | – | 34 | – | – | – | – | –
N#Cc1ccc(-c2cnccc2SC2(C(=O)O)CCC2)n2ccc(F)c12 [Example 21, 1-((3-(8-cyano-1-fluoroindolizin-5-yl)pyridin-4-yl)thio)cyclobutane-1-carboxylic acid] | – | 85 | – | – | – | – | –
N#Cc1ccc(-c2cnccc2SC2(C(=O)O)CCC2)n2c(Cl)ccc12 [Example 23, 1-((3-(3-chloro-8-cyanoindolizin-5-yl)pyridin-4-yl)thio)cyclobutane-1-carboxylic acid] | – | 89 | – | – | – | – | –
COCC(C)(Sc1ccncc1-c1ccc(C#N)c2cccn12)C(=O)O (stereo not drawn) [Example 31, 2-((3-(8-cyanoindolizin-5-yl)pyridin-4-yl)thio)-3-methoxy-2-methylpropanoic acid] | – | 504 | – | – | – | – | –
